Data reported in patent publication US20060183773A1, “Uses of methylphenidate derivatives” (priority 2005, published 2006).

How the values were obtained:
Format in all cases: cell-based, human
IL-8 [1] = test: IL-8 release from LPS-stimulated THP-1 monocytes, ELISA; settings: THP-1, LPS 200 ng/ml, Cpd II 15 μg/ml, Dex 10 μM
Experimental: (§1) THP-1 is a monocyte cell line obtained from American Type Culture Collection (ATCC) (catalog no. TIB-202). […] After 1 hour, lipopolysaccharide (LPS) (obtained from Sigma) was added to the cultures to give a final concentration of 200 ng/ml, and the cells were then incubated for an additional 4 hours or for an additional 24 hours. After the incubation, the cells were centrifuged, and the supernatants were collected. The concentrations of IL-8 and TNFα in the supernatants were determined by ELISA.
The concentrations of IL-8 in the supernatants were determined by ELISA performed as described in Example 4.

TNFα = TNFα release from LPS-stimulated THP-1 monocytes, ELISA; settings: THP-1, LPS 200 ng/ml, 24 hours; Cpd II 15 μg/ml, Dex 10 μM; LPS alone 138.655
Experimental: as §1
The TNFα ELISA was performed as described in Example 2.

TCR-positive cells = test: Annexin staining of TCR-positive PBL, flow cytometry (cell death); settings: PHA 5 μg/ml plus 10 μM dexamethasone; printed as decreased from 84%
Experimental: After this incubation, PHA was added to give a final concentration of 5 μg/ml, and the cells were incubated for an additional 72 hours at 37° C., 5% CO2. All cultures were performed in triplicate. Cells were then removed by centrifugation at 1000 rpm for 10 minutes.
The cells were further analyzed by flow cytometry. Annexin was used to determine populations of dead or dying cells. Anti-CD69 antibody was used to establish the level of cellular activation. Antibody to T-cell receptor αβ (TCR) was also used. Recombinant Annexin 5 (PE and FITC conjugates) and the antibodies were all purchase from Caltag (Burlingham, Calif.) and used following the manufacturer's recommendations.

IL-8 [2] = test: IL-8 release by TNFα-stimulated HUVECs, ELISA; settings: 10 ng/ml TNFα + 10 μM; 18 hours; TNFα + water 35572
Experimental: Passage 4 HUVECs, human source lot number 8710 (obtained from ATCC), were put into the wells of a 24-well tissue culture plate at 5,000 cells/well in EGM-2 medium (obtained from Cambrex) and cultured for 72 hours at 37° C. and 5% CO2. […] After incubation for 1 hour at 37° C. and 5% CO2, TNFα (obtained from Pierce) was added to give a final concentration of 10 ng/ml, and the cells were incubated for an additional 18 hours at 37° C. and 5% CO2. After this incubation, the supernatants were collected, and the amount of IL-8 in the supernatants determined by ELISA as described in Example 4.

NFκB [3] = test: Activated NFκB in VEGF-treated HUVECs, TransAM assay; settings: VEGF 10 ng/ml + 10 μM, control 0.070, VEGF only 0.111
Experimental: Passage 5 HUVECs, human source lot number 8750 (obtained from ATCC), were grown to confluence in 25 cm^2 flasks in EGM-2 medium. The following additives were added to the flasks (total volume of 5 ml/flask) in EGM-2 medium containing 2% FCS, GA1000 (gentamycin), heparin and ascorbic acid (all from Cambrex): 1 μg/ml of the compound of formula II (Cpd II); 5 μg/ml Cpd II; 15 μg/ml of Cpd II; 15 μg/ml methylphenidate (MP); or 10 μM LY 294002. The flasks were incubated overnight at 37° C., 5% CO2 After this incubation, vascular endothelial growth factor (VEGF) (obtained from Sigma) was added to give a final concentration 10 ng/ml, and the flasks were incubated for an additional 30 minutes.
(§2) Then, the amount of NFκB was determined using a TransAM™ NFκB p65/NFκB p50 Transcription Factor Assay Kit and a Nuclear Extract Kit from Active Motif North America, Carlsbad, Calif., according to the manufacturer's instructions. Briefly, a nuclear extract of the cells was prepared using the Nuclear Extract Kit. Then, the nuclear extract was added to the wells of the 96-well plate of the TransAM™ kit. Oligonucleotide containing an NFκB consensus binding site was immobilized in the wells, and the activated NFκB contained in the nuclear extract was bound to the oligonucleotide. Then, an antibody directed against the NFκB p65 or p50 subunit was added, and the NFκB complex bound to the oligonucleotide was detected. A secondary antibody conjugated to horseradish peroxidase (HRP) was next added to provide a colorimetric readout that was quantified by spectrophotometry (measurement at 450 nm).

NFκB [4] = test: Activated NFκB in TNFα- or VEGF-treated HIAECs, TransAM assay; settings: TNFα + LY 294002, control 0.174, TNFα only 0.881
Experimental: as §2
Passage 8 (human iliac artery endothelial cells (HIAECs) (obtained from ATCC; catalog no. CC-2545) were grown to confluence in 25 cm^2 flasks in EGM-2 medium. Eighteen hours prior to the experiment, the medium was replaced with EGM-2 medium containing 0.1% FCS plus heparin, GA1000 (gentamycin) and bovine pituitary extract (all from Cambrex) to place the cells in a resting state. To perform the experiment the medium was aspirated from the flasks, and the following additives were added to the flasks in fresh medium (total volume of 5 ml/flask): 15 μg/ml of the compound of formula II (Cpd II) or 10 μM LY 294002. The flasks were incubated 2 hours at 37° C., 5% CO2 After this incubation, VEGF or TNFα was added to give a final concentration 10 ng/ml, and the flasks were incubated for an additional 30 minutes. Then, the amount of NFκB was determined using a TransAM™ NFκB p65/NFκB p50 Transcription Factor Assay Kit and a Nuclear Extract Kit from Active Motif North America, Carlsbad, Calif., as described in Example 9.

c-Jun = c-Jun in VEGF-treated HUVECs, TransAM AP-1 assay; settings: VEGF 10 ng/ml + 10 μM, control 0.204, VEGF only 0.261
Experimental: The flasks were incubated overnight at 37° C., 5% CO2 After this incubation, vascular endothelial growth factor (VEGF) (obtained from Sigma) was added to give a final concentration 10 ng/ml, and the flasks were incubated for an additional 30 minutes.
The amount of c-Jun was determined using a TransAM™ AP-1 Family Transcription Factor Assay Kit and a Nuclear Extract Kit from Active Motif North America, Carlsbad, Calif., according to manufacturer's instructions. Briefly, a nuclear extract of the cells was prepared using the Nuclear Extract Kit. Then, the nuclear extract was added to the wells of a 96-well plate in which oligonucleotide containing a TPA-responsive element (TRE) was immobilized. Activator protein-1 (AP-1) dimers contained in the nuclear extract were bound to this oligonucleotide and were detected using an antibody specific for c-Jun. A secondary antibody conjugated to horseradish peroxidase (HRP) was next added to provide a colorimetric readout that was quantified by spectrophotometry (measurement at 450 nm).

SMILES | % Inhibition (IL-8) (IL-8 [1]; 4 hours) | % Inhibition (IL-8) (IL-8 [1]; 24 hours) | Mean IL-8 Concentration (IL-8 [1]; 24 hours, LPS alone 6653.20) | Mean TNFα Concentration (TNFα) | Annexin staining of TCR-positive cells (TCR-positive cells) | Mean IL-8 (IL-8 [2]) | Mean OD 450 nm (NFκB) (NFκB [3]) | Mean OD 450 nm (NFκB) (NFκB [4]) | Mean OD 450 nm (c-Jun) (c-Jun)
C[C@@H]1C[C@H]2[C@@H]3CCC4=CC(=O)C=C[C@]4(C)[C@@]3(F)[C@@H](O)C[C@]2(C)[C@@]1(O)C(=O)CO [dexamethasone, reference compound] | 26% | 66% | 2300.00 ± 283.41 pg/mL | 94.759 ± 8.755 pg/mL | 48% |  |  |  | 
O=c1cc(N2CCOCC2)oc2c(-c3ccccc3)cccc12 [LY 294002, reference compound] |  |  |  |  |  | 9196.1 ± 150.97 pg/mL | 0.138 ± 0.008 | 0.810 ± 0.007 | 0.340 ± 0.020
